“Also recorded” adds a separate entry of the source.
Columns and labels:
Type in all cases: cell-based
UMR-106 cells [1] = test: MTT cell viability assay, UMR-106 cells; details: for IC50: MTT; for effect of low concentrations on osteoblast growth: UMR-106 osteoblasts
Description: (§1) Osteoblast-like UMR-106 cells (RRID CVCL_3617; ATCC CRL-1661) and triple-negative breast cancer cells, MDA-MB-231 (RRID CVCL_0062; ATCC HTB-26) were obtained from American Type Culture Collection (ATCC, VA, USA). Cells were cultured in Dulbecco’s modified Eagle’s medium (DMEM) (Sigma-Aldrich, MO, USA) containing 10% (v/v) fetal bovine serum (FBS) and 1% penicillin–streptomycin (Gibco, Texas, USA) and maintained under 5% CO2 at 37 °C, and sub-cultured according to the manufacturer’s instruction.
(§2) Cell viability was assessed using the 3-(4,5-dimethylthiazol-2-yl)-2,5-diphenyltetrazolium bromide (MTT) colorimetric assay. The assay was performed according to a previously described method. In brief, cells were seeded into a 96-well plate at a density of 1.0 × 10^4 cells/well and allowed to attach overnight. Thereafter, they were treated with ACEA, GW405833 or the combination of both for the indicated times. MTT (Invitrogen, CA, USA) solution was added to the final concentration of 0.5 mg/mL in 100 µL in serum-free DMEM and incubated at 37 °C for 4 h, then stop solution was added and thoroughly mixed. The optical density at 595 nm was measured using a microplate reader (Multiskan EX) (Thermo Fisher Scientific, MA, USA). The percentage of cell viability was calculated based on the absorbance ratio between cells treated with the compounds and control multiplied by 100 (percent cell viability normalized to control).
(§3) All results are expressed as means ± standard errors (SEM). Unless otherwise specified, statistical analysis for multiple comparisons was performed using one-way analysis of variance (ANOVA). The difference between pairs of means was analyzed by Tukey post-test. A p-value < 0.05 was considered statistically significant. Calculation of the inhibitory concentration at 50% (IC50) and all statistical analyses were performed using GraphPad Prism 9 (GraphPad Software Inc., USA).

MDA-MB-231 cells [2] = test: MTT cell viability assay, MDA-MB-231 cells; details: for IC50: MTT
Description: as §1, §2, §3

UMR-106 cells [3] = test: UMR-106 viability (MTT) with conditioned media from agonist-pretreated MDA-MB-231 cells; details: MDA-MB-231 pretreated 48 h; CM collected after 48 h in serum-free DMEM
Description: To collect CM from MDA-MB-231 cells, cells were seeded into a 6-well plate at a density of 5.0 × 10^5 cells/well and grown for 24 h until reaching 80–90% confluence. In the pretreatment experiment, cells were treated with either ACEA, GW405833 or a combination of both for 48 h. After that, cells were washed with phosphate buffered saline (PBS) and incubated in serum-free DMEM. Forty-eight hours later, CM from these cells was harvested, filtered through a syringe filter (pore size of 0.2 µm; Sartorius Stedim Biotech GmbH, Göttingen, Germany) to remove cells and debris, and stored at − 80 °C for later experiments (Fig. 1a).
as §2, with “MTT (Invitrogen, CA, USA) solution was added to the final concentration of 0.5 mg/mL in 100 µL in serum-free DMEM and incubated at 37 °C for 4 h, then stop solution was added and thoroughly mixed.” left out

[4] = tested on: cellular ROS in MDA-MB-231 cells; test: DCFDA cellular ROS detection assay; details: 30 µM ACEA, 15 µM GW405833 or combination, 6 h
Description: Cellular reactive oxygen species (ROS) were monitored using the 2´,7´-dichlorofluorescin diacetate (DCFDA) Cellular ROS Detection Assay Kit (ab113851) (Abcam, Cambridge, UK) according to the manufacturer's instruction. In brief, MDA-MB-231 cells were seeded into a 96-black well plates with clear bottom at a density of 2.5 × 10^4 cells/well and grown overnight. Then, the cells were treated with ACEA, GW405833 or the combination of both for 6 h. At the end of the treatment, fluorescence signal of DCF was measured by using a multimode microplate reader (Spark 10 M) (Tecan Austria GmbH, Männedorf, Austria) with the excitation and emission wavelengths of 485 and 535 nm, respectively.

[5] = tested on: p-NF-κB p65 in MDA-MB-231 cells; test: Western blot of p-NF-κB p65 expression; details: individual treatments, 48 h
Description: Twenty micrograms of protein samples were resolved by sodium dodecyl sulfate polyacrylamide gel electrophoresis (SDS-PAGE) (Invitrogen) gel before being transferred to nitrocellulose blotting membrane (GE Healthcare, Texas, USA).The membranes were then blocked with 5% (w/v) bovine serum albumin (BSA) (Capricorn Scientific, Hessen, Germany) for 2 h at room temperature, followed by the incubation at 4 °C overnight with primary antibodies. After washing, the membranes were incubated with the appropriate horseradish peroxidase (HRP)-conjugated secondary antibodies. Proteins on the immunoblots were visualized by enhanced chemiluminescence (ECL) (Millipore, MA, USA) and exposed to X-ray film (GE Healthcare). Protein band intensity was quantified using ImageJ software (National Institutes of Health, MD, USA). To relatively quantify the target protein expression, the intensity of target protein band was normalized to β-actin of each lane.

MDA-MB-231 cells [6] = test: Wound healing cell migration assay; details: for cell migration (wound closure): 15 µM
Description: Cell migration was measured by wound healing assay modified from Lertsuwan et al.,[27]. Briefly, MDA-MB-231 cells were seeded into a 24-well plate at a density of 4.0 × 10^5 cells/well and allowed to attach overnight. Thereafter, wound was created with a sterile 200-µL pipette tip, then the cells were treated with ACEA, GW405833 or the combination of both. Series of images of the scratched wound were taken under a phase contrast inverted microscope (model AE31) (Motic, China) from 0 to 36 h. The closure of the wound representing migration ability of the cells was measured by using ImageJ software (National Institutes of Health). Cell migration was calculated as the percentage of wound closure area compared to the initial scratched area.

Row | Structure (SMILES) | IC50 (UMR-106 cells [1]; 24 h) [µM] | IC50 (UMR-106 cells [1]; 48 h) [µM] | IC50 (UMR-106 cells [1]; 72 h) [µM] | effect of low concentrations on osteoblast growth (UMR-106 cells [1]) | Fold differences between IC50 values of UMR-106 / MDA-MB-231 (MDA-MB-231 cells [2]; 24 h) [fold] | IC50 (MDA-MB-231 cells [2]; 24 h) [µM] | Fold differences between IC50 values of UMR-106 / MDA-MB-231 (MDA-MB-231 cells [2]; 48 h) [fold] | IC50 (MDA-MB-231 cells [2]; 48 h) [µM] | Fold differences between IC50 values of UMR-106 / MDA-MB-231 (MDA-MB-231 cells [2]; 72 h) [fold] | IC50 (MDA-MB-231 cells [2]; 72 h) [µM] | Fold differences between IC50 values of UMR-106 / MDA-MB-231 (MDA-MB-231 cells [2]; Average of 24, 48 and 72 h) [fold] | effect of pretreatment of MDA-MB-231 cells on CM-mediated suppression of UMR-106 cell viability (UMR-106 cells [3]) | cellular ROS levels compared to control group [4] | level of p-NF-κB p65 [5] | percentage of wound closure (cell migration) (MDA-MB-231 cells [6]; 20 µM, 24 h) | percentage of wound closure (cell migration) (MDA-MB-231 cells [6]; 30 µM, 24 h) | percentage of wound closure (cell migration) (MDA-MB-231 cells [6]; 30 µM, 36 h) | cell migration (wound closure) (MDA-MB-231 cells [6]; 24 h) | cell migration (wound closure) (MDA-MB-231 cells [6]; 36 h)
1 | CCCCC/C=C\C/C=C\C/C=C\C/C=C\CCCC(=O)NCCCl [ACEA] | 104 | 62 | 38 | growth stimulatory effect | 1.54 | 67.8 | 1.63 | 38 | 1.16 | 32.8 | 1.44 | did not alter CM-mediated osteoblast suppression | remained unchanged | remained unchanged | significantly decreased | significantly decreased; also recorded: significant reduction | significantly decreased |  | 
2 | COc1ccc2c(c1)c(CCN1CCOCC1)c(C)n2C(=O)c1cccc(Cl)c1Cl [GW405833] | 168 | 119 | 79.9 | growth stimulatory effect | 6.83 | 24.6 | 7.18 | 16.6 | 6.27 | 12.7 | 6.76 | significant recovery | remained unchanged | remained unchanged |  |  |  | significant reduction | significant cell migration suppression

Reference: PMC9072415, “Activation of cannabinoid receptors in breast cancer cells improves osteoblast viability in cancer-bone interaction model while reducing breast cancer cell survival and migration” (Scientific Reports, 2022)
